Measurements: patent US8791123B2, “Substituted pyrazolo[1,5-a]pyrimidine compounds as Trk kinase inhibitors” (Array Biopharma, Inc., priority 2009, dated 2014)
pIC50: −log10 of the molar value.

Tests used:
[1] = biological target: TrkA (histidine-tagged recombinant human TrkA, cytoplasmic domain) (Homo sapiens (Human), UniProt P04629); assay: TrkA ELISA Assay; format: biochemical; details: Table 1; ELISA, 500 μM ATP; read-out: TrkA Enzyme IC50
Summary of the method: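 ELISA read-out: a peroxidase-linked anti-phosphotyrosine antibody (PY20, 0.2 μg/mL) with TMB substrate, absorbance at 450 nm after acid stop. The plate-bound substrate was poly(Glu,Ala,Tyr; 6:3:1) at 0.025 mg/mL, phosphorylated by the recombinant His-tagged human TrkA cytoplasmic domain in the presence of inhibitors.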

[2] = biological target: Human Jak2 kinase domain (Homo sapiens (Human), UniProt O60674); assay: Jak2 Inhibition Assay (Omnia kinase assay); format: biochemical; details: Table 1; 500 μM ATP; >1000 nM when >50% inhibition not observed at 1000 nM; read-out: Jak2 Enzyme IC50
Human Jak2 kinase domain, sequence (O60674 808-1132): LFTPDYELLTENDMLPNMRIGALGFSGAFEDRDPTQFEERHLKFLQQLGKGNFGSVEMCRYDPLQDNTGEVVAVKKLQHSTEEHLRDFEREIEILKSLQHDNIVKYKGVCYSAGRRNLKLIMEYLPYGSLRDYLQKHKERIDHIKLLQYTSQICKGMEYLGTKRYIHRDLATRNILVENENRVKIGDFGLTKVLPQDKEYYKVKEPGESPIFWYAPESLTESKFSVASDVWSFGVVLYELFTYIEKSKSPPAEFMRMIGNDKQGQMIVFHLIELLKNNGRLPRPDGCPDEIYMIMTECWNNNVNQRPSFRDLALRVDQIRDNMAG

TrkA (histidine-tagged recombinant human TrkA, cytoplasmic domain), sequence (P04629 440-796): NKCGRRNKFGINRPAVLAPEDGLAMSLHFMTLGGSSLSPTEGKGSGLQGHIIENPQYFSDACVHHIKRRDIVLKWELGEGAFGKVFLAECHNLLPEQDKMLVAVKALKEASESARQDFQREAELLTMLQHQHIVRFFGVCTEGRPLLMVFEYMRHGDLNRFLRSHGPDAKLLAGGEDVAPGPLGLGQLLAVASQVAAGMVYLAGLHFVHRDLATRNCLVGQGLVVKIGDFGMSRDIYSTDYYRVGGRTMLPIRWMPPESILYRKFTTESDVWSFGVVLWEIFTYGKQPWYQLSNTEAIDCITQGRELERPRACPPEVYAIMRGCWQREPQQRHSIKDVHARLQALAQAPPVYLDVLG

Structure (SMILES) | pIC50 [1] | pIC50 [2]
O=C(Nc1ccc(F)cn1)c1cnn2ccc(N3CCC[C@@H]3c3cncc(F)c3)nc12 [Example 95, (R)—N-(5-fluoropyridin-2-yl)-5-(2-(5-fluoropyridin-3-yl)pyrrolidin-1-yl)pyrazolo[1,5-a]pyrimidine-3-carboxamide] | 8.27 | < 6.00
O=C(NCC(F)CCl)c1cnn2ccc(N3CCC[C@@H]3c3cncc(F)c3)nc12 (stereo partly drawn) [Example 97, N-(3-chloro-2-fluoropropyl)-5-((R)-2-(5-fluoropyridin-3-yl)pyrrolidin-1-yl)pyrazolo[1,5-a]pyrimidine-3-carboxamide] | 8.21 | < 6.00
O=C(NC1CCC1)c1cnn2ccc(N3CCC[C@@H]3c3cncc(F)c3)nc12 [Example 101, (R)-N-cyclobutyl-5-(2-(5-fluoropyridin-3-yl)pyrrolidin-1-yl)pyrazolo[1,5-a]pyrimidine-3-carboxamide] | 7.93 | < 6.00
CC1(NC(=O)c2cnn3ccc(N4CCC[C@@H]4c4cncc(F)c4)nc23)CCC1 [Example 102, (R)-5-(2-(5-fluoropyridin-3-yl)pyrrolidin-1-yl)-N-(1-methylcyclobutyl)pyrazolo[1,5-a]pyrimidine-3-carboxamide] | 8.28 | < 6.00
O=C(N[C@H]1CCC[C@@H]1O)c1cnn2ccc(N3CCC[C@@H]3c3cncc(F)c3)nc12 [Example 103, 5-((R)-2-(5-fluoropyridin-3-yl)pyrrolidin-1-yl)-N-((1S,2S)-2-hydroxycyclopentyl)pyrazolo[1,5-a]pyrimidine-3-carboxamide] | 7.06 | < 6.00
O=C(N[C@H]1CCC[C@H]1O)c1cnn2ccc(N3CCC[C@@H]3c3cncc(F)c3)nc12 [Example 104, 5-((R)-2-(5-fluoropyridin-3-yl)pyrrolidin-1-yl)-N-((1S,2R)-2-hydroxycyclopentyl)pyrazolo[1,5-a]pyrimidine-3-carboxamide] | 7.08 | < 6.00
O=C(N[C@H]1CC[C@H](O)C1)c1cnn2ccc(N3CCC[C@@H]3c3cncc(F)c3)nc12 [Example 105, 5-((R)-2-(5-fluoropyridin-3-yl)pyrrolidin-1-yl)-N-((1S,3S)-3-hydroxycyclopentyl)pyrazolo[1,5-a]pyrimidine-3-carboxamide] | 7.60 | < 6.00
O=C(NC1(CO)CC1)c1cnn2ccc(N3CCC[C@@H]3c3cncc(F)c3)nc12 [Example 107, (R)-5-(2-(5-fluoropyridin-3-yl)pyrrolidin-1-yl)-N-(1-(hydroxymethyl)cyclopropyl)pyrazolo[1,5-a]pyrimidine-3-carboxamide] | 7.79 | < 6.00
O=C(c1cnn2ccc(N3CCC[C@@H]3c3cncc(F)c3)nc12)N1CC(O)C1 [Example 108, (R)-(5-(2-(5-fluoropyridin-3-yl)pyrrolidin-1-yl)pyrazolo[1,5-a]pyrimidin-3-yl)(3-hydroxyazetidin-1-yl)methanone] | 5.92 | < 6.00
C[C@H](O)CNC(=O)c1cnn2ccc(N3CCC[C@@H]3c3cncc(F)c3)nc12 [Example 109, 5-((R)-2-(5-fluoropyridin-3-yl)pyrrolidin-1-yl)-N-((S)-2-hydroxypropyl)pyrazolo[1,5-a]pyrimidine-3-carboxamide] | 7.44 | < 6.00
C[C@@H](O)CNC(=O)c1cnn2ccc(N3CCC[C@@H]3c3cncc(F)c3)nc12 [Example 110, 5-((R)-2-(5-fluoropyridin-3-yl)pyrrolidin-1-yl)-N-((R)-2-hydroxypropyl)pyrazolo[1,5-a]pyrimidine-3-carboxamide] | 7.43 | < 6.00
CC(C)(O)CNC(=O)c1cnn2ccc(N3CCC[C@@H]3c3cncc(F)c3)nc12 [Example 111, (R)-5-(2-(5-fluoropyridin-3-yl)pyrrolidin-1-yl)-N-(2-hydroxy-2-methylpropyl)pyrazolo[1,5-a]pyrimidine-3-carboxamide] | 7.42 | < 6.00
O=C(NCCO)c1cnn2ccc(N3CCC[C@@H]3c3cncc(F)c3)nc12 [Example 112, (R)-5-(2-(5-fluoropyridin-3-yl)pyrrolidin-1-yl)-N-(2-hydroxyethyl)pyrazolo[1,5-a]pyrimidine-3-carboxamide] | 7.51 | < 6.00
CC(NC(=O)c1cnn2ccc(N3CCCC3c3cncc(F)c3)nc12)C1CC1 [Example 113, N-(1-cyclopropylethyl)-5-((R)-2-(5-fluoropyridin-3-yl)pyrrolidin-1-yl)pyrazolo[1,5-a]pyrimidine-3-carboxamide] | 8.49 | < 6.00
C[C@H](CO)NC(=O)c1cnn2ccc(N3CCC[C@@H]3c3cncc(F)c3)nc12 [Example 115, 5-((R)-2-(5-fluoropyridin-3-yl)pyrrolidin-1-yl)-N-((R)-1-hydroxypropan-2-yl)pyrazolo[1,5-a]pyrimidine-3-carboxamide] | 7.82 | < 6.00
C[C@@H](CO)NC(=O)c1cnn2ccc(N3CCC[C@@H]3c3cncc(F)c3)nc12 [Example 116, 5-((R)-2-(5-fluoropyridin-3-yl)pyrrolidin-1-yl)-N-((S)-1-hydroxypropan-2-yl)pyrazolo[1,5-a]pyrimidine-3-carboxamide] | 7.58 | < 6.00
NC(=O)c1cnn2ccc(N3CCC[C@@H]3c3cncc(F)c3)nc12 [Example 117, (R)-5-(2-(5-fluoropyridin-3-yl)pyrrolidin-1-yl)pyrazolo[1,5-a]pyrimidine-3-carboxamide] | 7.35 | < 6.00
COCC(C)NC(=O)c1cnn2ccc(N3CCCC3c3cncc(F)c3)nc12 [Example 118, 5-((R)-2-(5-fluoropyridin-3-yl)pyrrolidin-1-yl)-N-(1-methoxypropan-2-yl)pyrazolo[1,5-a]pyrimidine-3-carboxamide] | 7.65 | < 6.00
COCC(O)CNC(=O)c1cnn2ccc(N3CCCC3c3cncc(F)c3)nc12 [Example 119, 5-((R)-2-(5-fluoropyridin-3-yl)pyrrolidin-1-yl)-N-(2-hydroxy-3-methoxypropyl)pyrazolo[1,5-a]pyrimidine-3-carboxamide] | 6.88 | < 6.00
O=C(NC1CCC[C@@H]1O)c1cnn2ccc(N3CCCC3c3cncc(F)c3)nc12 (stereo partly drawn) [Example 120, 5-((R)-2-(5-fluoropyridin-3-yl)pyrrolidin-1-yl)-N-((trans)-2-hydroxycyclopentyl)pyrazolo[1,5-a]pyrimidine-3-carboxamide] | 7.64 | < 6.00
CC(C)[C@@H](CO)NC(=O)c1cnn2ccc(N3CCC[C@@H]3c3cncc(F)c3)nc12 [Example 121, 5-((R)-2-(5-fluoropyridin-3-yl)pyrrolidin-1-yl)-N-((S)-1-hydroxy-3-methylbutan-2-yl)pyrazolo[1,5-a]pyrimidine-3-carboxamide] | 6.74 | < 6.00
CC(C)[C@H](CO)NC(=O)c1cnn2ccc(N3CCC[C@@H]3c3cncc(F)c3)nc12 [Example 122, 5-((R)-2-(5-fluoropyridin-3-yl)pyrrolidin-1-yl)-N-((R)-1-hydroxy-3-methylbutan-2-yl)pyrazolo[1,5-a]pyrimidine-3-carboxamide] | 7.48 | < 6.00
CC(C)(CO)CNC(=O)c1cnn2ccc(N3CCC[C@@H]3c3cncc(F)c3)nc12 [Example 125, (R)-5-(2-(5-fluoropyridin-3-yl)pyrrolidin-1-yl)-N-(3-hydroxy-2,2-dimethylpropyl)pyrazolo[1,5-a]pyrimidine-3-carboxamide] | 7.89 | < 6.00
O=C(c1cnn2ccc(N3CCC[C@@H]3c3cncc(F)c3)nc12)N1CCC1 [Example 126, (R)-azetidin-1-yl(5-(2-(5-fluoropyridin-3-yl)pyrrolidin-1-yl)pyrazolo[1,5-a]pyrimidin-3-yl)methanone] | 6.66 | < 6.00
O=C(c1cnn2ccc(N3CCC[C@@H]3c3cncc(F)c3)nc12)N1CC(CO)C1 [Example 127, (R)-(5-(2-(5-fluoropyridin-3-yl)pyrrolidin-1-yl)pyrazolo[1,5-a]pyrimidin-3-yl)(3-(hydroxymethyl)azetidin-1-yl)methanone] | 6.33 | < 6.00
O=C(c1cnn2ccc(N3CCC[C@@H]3c3cncc(F)c3)nc12)N1CC[C@H](O)C1 [Example 128, (5-((R)-2-(5-fluoropyridin-3-yl)pyrrolidin-1-yl)pyrazolo[1,5-a]pyrimidin-3-yl)((S)-3-hydroxypyrrolidin-1-yl)methanone] | 5.59 | < 6.00
C[C@@H](NC(=O)c1cnn2ccc(N3CCC[C@@H]3c3cncc(F)c3)nc12)C(F)(F)F [Example 129, 5-((R)-2-(5-fluoropyridin-3-yl)pyrrolidin-1-yl)-N-((R)-1,1,1-trifluoropropan-2-yl)pyrazolo[1,5-a]pyrimidine-3-carboxamide] | 8.10 | < 6.00
C[C@H](NC(=O)c1cnn2ccc(N3CCC[C@@H]3c3cncc(F)c3)nc12)C(F)(F)F [Example 130, 5-((R)-2-(5-fluoropyridin-3-yl)pyrrolidin-1-yl)-N-((S)-1,1,1-trifluoropropan-2-yl)pyrazolo[1,5-a]pyrimidine-3-carboxamide] | 8.77 | < 6.00
O=C(NCC(F)(F)F)c1cnn2ccc(N3CCC[C@@H]3c3cncc(F)c3)nc12 [Example 131, (R)-5-(2-(5-fluoropyridin-3-yl)pyrrolidin-1-yl)-N-(2,2,2-trifluoroethyl)pyrazolo[1,5-a]pyrimidine-3-carboxamide] | 8.30 | < 6.00
CC(C)(CO)NC(=O)c1cnn2ccc(N3CCC[C@@H]3c3cncc(F)c3)nc12 [Example 132, (R)-5-(2-(5-fluoropyridin-3-yl)pyrrolidin-1-yl)-N-(1-hydroxy-2-methylpropan-2-yl)pyrazolo[1,5-a]pyrimidine-3-carboxamide] | 7.35 | < 6.00
